Assay results as given in PMC12338828, “Evaluation of organotin (IV) dithiocarbamate compounds as potential anti-leukemia agents towards CCRF-CEM (CCL-119) cell line: Cytotoxic, apoptotic, cell cycle and genotoxic study” (PLOS One, 2025).
Values joined by “and” are separate entries in the source; they are usually repeats but may differ in a detail not shown here. Equal values may be shown once. Read-outs that look alike come from different tables or passages of the source.

Tests used:
[1] = Mode of cell death, Annexin V-FITC/PI staining (flow cytometry); type: cell-based; details: human, Viable (Q3)
Protocol: (§1) The mode of cell death can be observed through the Annexin V-FITC/PI staining (BD, USA). The result of this test is either apoptosis or necrosis. […] VCR was used as a positive control, while cells without any treatment were used as a negative control. Then, the plate was incubated for 24 hours. After the incubation, the cell suspension in each well was collected into different Eppendorf tubes. The tubes were then centrifuged for 5 minutes at 1500 rpm at 4°C. After the centrifuge, the supernatant in the tubes was removed, and the cell pellets were washed twice with cold PBS. Then, centrifuge the tubes again and remove the supernatant. Next, 100 µL of Annexin V binding buffer was resuspended in each tube, and 5 µL Annexin V-FITC was pipetted into the tube to stain the cells for 15 minutes at room temperature, dark. After that, 5 µL of propidium iodide was piped into the tube for 5 minutes. The staining process is done in dark conditions. Lastly, the sample was transferred into the Falcon tube, and each tube was resuspended in 400 µL of Annexin V binding buffer. The sample was analyzed using a flow cytometer (BD FACS Canto II) within one hour.

CCL-119 cells [2] = test: as above; type: cell-based; details: for Early Apoptosis (Q4) / Late Apoptosis (Q2) / Necrosis (Q1) / Viable (Q3): 24 hours at IC50, single replicates n1-n3; for cell death through apoptosis (population of cells): early + late apoptosis
Protocol: as §1

in vitro = details: human
Protocol: (§2) The T-acute lymphoblastic leukemia cell line, CCRF-CEM (CCL-119™), and a non-cancerous cell, WIL2-NS (CRL-8155™), were purchased from the American Type Culture Collection (ATCC). Both are suspension types of cells and were cultured in Roswell Park Memorial Institute Medium 1640 (RPMI-1640) (Sigma-Aldrich), supplemented with 10% Fetal Bovine Serum (FBS) (Capricorn Scientific) and 1% penicillin-streptomycin (Nacalai Tesque) to obtain the complete growth medium and were incubated at 37 °C with a 5% CO2 incubator. Both suspension cells are used for tests when the cells’ passage becomes passage 3–10 (maximum).
(§3) All stock solutions of the organotin (IV) dithiocarbamate compounds were prepared at 10 mM and dissolved in dimethyl sulphoxide (DMSO) (ChemAR®). The stock solutions were stored at 4°C; fresh dilutions were made by adding the RPMI-1640 medium before the experiment. The dilution is carried out using the serial dilution method to obtain the desired concentrations, which are 5 µM, 2.5 µM, 1.25 µM, 0.63 µM, 0.32 µM, and 0.16 µM in this study. Vincristine (VCR) is used as a positive control in this study.
(§4) Both CCL-119 and WIL2-NS cells were seeded in a 96-well plate at a final concentration of 5 x 10^5 cells/well and treated with 5 µM, 2.5 µM, 1.25 µM, 0.63 µM, 0.32 µM, and 0.16 µM of organotin (IV) dithiocarbamate compound for 24 hours at 37°C with 5% CO2. VCR was used as a positive control in this study, while cells without treatment were used as a negative control. After 24 hours of exposure, 20 µL of MTT (Merck) salt solution was added into each well and incubated for another 4 hours. The plate was wrapped with aluminium foil as MTT salt is light sensitive. After 4 hours, the purple crystal formazan was formed. All the medium was removed carefully from each well, and 200 µL DMSO was added to each well to dissolve the purple formazan crystal. Then, the plates were incubated for an additional 15 minutes. The results were analyzed and recorded using an ELISA microplate reader at 570 nm. The data was then plotted into a graph, and IC50 values were determined.
(§5) The selectivity index (SI) is determined by dividing the cytotoxic activity (IC50 value) of each compound on a non-cancerous cell line (WIL2-NS) by the leukemia cell line (CCL-119). […] WIL2- NS cell lines were selected as the comparator because it is a non-cancerous human B lymphoblast cell line, which is like CCL-119 (T-lymphoblastic leukemia), derived from lymphocytes. This choice ensures that comparisons are made between biologically similar cell types, minimizing variability that could arise from differences in tissue origin or lineage.

CCL-119 cells [3] = test: MTT cytotoxicity assay; details: for IC50: read-out: IC50 (µM) CCL-119; for Selectivity Index (SI): IC50 WIL2-NS / IC50 CCL-119; for Selectivity Index (SI) / cell viability at 0.31 µM / cell viability at 0.63 µM / cell viability at 1.25 µM / cell viability at 2.50 µM / cell viability at 5.00 µM: 24 hours; for cell viability at 0.31 µM / cell viability at 0.63 µM / cell viability at 1.25 µM / cell viability at 2.50 µM / cell viability at 5.00 µM: single replicates n1-n3, untreated = 100.00; for cell viability at 2.50 µM: 2.5 µM
Protocol: as §2, §3, §4, §5

CCL-119 cells [4] = test: Alkaline comet assay; type: cell-based
Protocol: VCR was used as a positive control, and untreated cells were used as a negative control in this assay. The cells were incubated for 1 hour. After incubation, cells in each well were transferred to the Eppendorf tube to centrifuge for 5 minutes at 4°C by using a refrigerated microcentrifuge. The supernatant was removed, and the samples were washed with 1 mL of cold PBS. This process was repeated 3 times. After completion of the process, the supernatant was removed, and the pellet was left for a while on top of the ice while preparing the slide.
About 140 µL of normal melting agar (NMA) is pipetted on top of the fully frosted slide, and a cover slip is put on the agar for 5 minutes or until the agar fully solidifies. After that, the cover slip was removed, and 80 µL of low melting agar (LMA) was added to an Eppendorf tube containing the pellet of cells. The suspension was then transferred into a frosted slide with NMA agar. The cover slip was then put back on top of the frosted slide for 10 minutes or until dry. Next, the slide was transferred into a Coplin jar that contained lysis buffer solution and Triton X-100. The slides were then incubated at 4°C overnight. The slides were arranged on an electrophoresis tank filled with electrophoresis buffer for 20 minutes. Electrophoresis is done for another 20 minutes at 25 V with 300 mA. The slides were washed with a neutralization buffer solution 3 times at a 5-minute time interval. Finally, 30 µL of ethidium bromide (50 µg/mL) was added, and the slide was observed by using fluorescence microscopy (OLYMPUS BX51TR). CometScore software is used to analyze the DNA damage of the cells. The comet assay was performed under alkaline conditions (pH > 13) to detect both single- and double-strand DNA breaks.

WIL2-NS cells = system: WIL2-NS cells; set-up: method as in Rasli et al. (2023); details: non-cancerous cells; 24 hours of exposure; graph referred to earlier paper; ref Rasli et al. (2023); cited from earlier work
CCL-119 cells [5] = test: Cell cycle analysis (PI/RNase staining); type: cell-based; details: for cells in G0/G1 phase / cells in G2/M phase / cells in S phase: 24 hours at IC50, single replicates n1-n3
Protocol: The cells were cultured and seeded in a 6-well plate at 1 x 10^6 cells/mL. VCR was used as a positive control, and untreated cells were used as a negative control in this assay. The concentration of the compounds and VCR was followed by IC50 values that were taken from the MTT assay.
After 24 hours of incubation, all cells in the plate were transferred to the Eppendorf tube and centrifuged for 5 minutes at 4°C at 1500 rpm. After centrifuging, the supernatant was removed, and cells were washed with 500 µL cold PBS three times. The pellet was fixed by using 70% ethanol overnight at −20°C. Next, the samples were stained with 500 µL of PI/RNase staining buffer and incubated for 15 minutes. The samples were then transferred into Falcon tubes. The data was recorded using a flow cytometer and analyzed using ModFit LT software.

Jurkat E6.1 cells = system: Jurkat E6.1 cells; set-up: method as in Awang et al. (2015) [26]; details: ref Awang et al. (2015) [26]; cited from earlier work
[6] = 1 hour of exposure, single replicates n1-n3
[7] = 24 hours of exposure, mean ± SEM, n = 3

SMILES | Early Apoptosis (Q4) (CCL-119 cells [2]) | Late Apoptosis (Q2) (CCL-119 cells [2]) | Necrosis (Q1) (CCL-119 cells [2]) | cell death through apoptosis (population of cells) (CCL-119 cells [2]; 24 hours, treated at IC50) [%] | Selectivity Index (SI) (CCL-119 cells [3]) | Tail moment (CCL-119 cells [4]; 1 hour of exposure, mean ± SEM) [A.U] | percentage of DNA intensity in the tail (CCL-119 cells [4]; 1 hour of exposure, mean ± SEM) [%] | % DNA intensity (CCL-119 cells [4]; [6]) | Tail moment (CCL-119 cells [4]; [6]) | IC50 (WIL2-NS cells) [µM] | cells in G0/G1 phase (CCL-119 cells [5]) | cells in G2/M phase (CCL-119 cells [5]) | cells in S phase (CCL-119 cells [5]) | Viable (Q3) (CCL-119 cells [2]) | cell viability at 0.31 µM (CCL-119 cells [3]) | cell viability at 0.63 µM (CCL-119 cells [3]) | cell viability at 1.25 µM (CCL-119 cells [3]) | cell viability at 2.50 µM (CCL-119 cells [3]) | cell viability at 5.00 µM (CCL-119 cells [3]) | IC50 (CCL-119 cells [3]; [7]) [µM] | also measured
CC[C@]1(O)C[C@H]2CN(CCc3c([nH]c4ccccc34)[C@@](C(=O)OC)(c3cc4c(cc3OC)N(C=O)[C@H]3[C@@](O)(C(=O)OC)[C@H](OC(C)=O)[C@]5(CC)C=CCN6CC[C@]43[C@@H]65)C2)C1 [VCR, Vincristine, reference compound] | 39.2% and 38.7% and 37.4% | 19% and 17.2% and 17.9% | 0.45% and 0.54% and 0.51% | 56.46 | below 2 | 4.17 ± 0.74 | 8.48 ± 1.09 | 6.493% and 8.677% and 10.2647% | 2.837 A.U and 4.286 A.U and 5.38 A.U | 2.89 ± 0.03 | 36.70% and 30.32% and 29.02% | 5.35% and 8.00% and 3.69% | 57.95% and 61.68% and 67.28% |  |  |  |  |  |  |  | viability at 24 h [1]: 44.4%; viability at 24 h, 0.63 µM (in vitro; cell viability at 0.63 µM): 50.6%; viability at 24 h, 1.25 µM (in vitro; cell viability at 1.25 µM): 46.3%; viability at 24 h, 5 µM (in vitro; cell viability at 5.00 µM): 41.6%; IC50 (CCL-119 cells [3]; 24 h): 1.82 ± 1.53 µM; Selectivity Index (SI) (CCL-119 cells [3]; listed as Vincristine (VCR)): 1.59
CC(C)N(C(=S)[S][Sn]([S]C(=S)N(C(C)C)C(C)C)([c]1ccccc1)[c]1ccccc1)C(C)C [ODTC 1, diphenyltin (IV) diisopropyl dithiocarbamate] | 45.2% and 37.2% and 40.2% | 34.7% and 29.3% | 0.2% and 1% and 0.6% | 77.6 | 2.48 | 68.58 ± 3.31 | 27.50 ± 2.36 | 31.5757% and 23.3927% and 27.534% | 74.8179 A.U and 67.3969 A.U and 63.5391 A.U | 1.39 ± 0.46 | 44.44% and 52.78% and 46.11% | 0.17% and 1.28% and 8.00% | 55.38% and 45.94% and 45.89% | 28.4% and 29.5% and 29.9% | 68.12% and 70.47% and 62.95% | 46.30% and 50.11% and 43.95% | 30.25% and 39.66% and 27.67% | 11.95% and 23.57% and 13.38% | 8.78% and 22.56% and 11.96% | 0.56 ± 0.04 | DNA damage / genotoxic effect (in words) (CCL-119 cells [4]): highest genotoxic effects; DNA damage class (CCL-119 cells [4]; 1 hour of exposure): class 3; Phases of Cell Cycle Arrest (CCL-119 cells [5]; 24 hours at IC50 concentrations): S phase
CCCCN(C(=S)[S][Sn]([c]1ccccc1)([c]1ccccc1)[c]1ccccc1)c1ccccc1 [triphenyltin (IV) butylphenyl dithiocarbamate] |  |  |  |  |  |  |  |  |  |  |  |  |  |  |  |  |  |  |  |  | mode of cell death in Jurkat E6.1 cells (Jurkat E6.1 cells): predominant induction of early-phase apoptotic cell death
CCN(CC)C(=S)[S][Sn]([CH3])([CH3])[S]C(=S)N(CC)CC [ODTC 7, dimethyltin (IV) diethyl dithiocarbamate] | 24.7% and 24.4% and 29.9% | 70.3% and 71.5% and 65.3% | 0.7% and 0.4% | 95.6 |  |  |  | 6.521% and 7.002% and 7.823% | 5.822 A.U and 6.511 A.U and 7.52 A.U | 0.5 ± 0.34 | 70.20% and 67.80% and 60.00% | 1.80% and 0.20% and 1.00% | 28.00% and 32.00% and 39.00% | 4.4% and 3.7% and 4.2% | 53.85% and 25.00% and 27.93% | 22.79% and 38.51% and 14.94% | 25.40% and 25.00% and 5.26% | 11.18% and 20.05% and 9.03% | 4.79% and 42.34% and 14.76% | 0.5 ± 0.3 | DNA damage / genotoxic effect (in words) (CCL-119 cells [4]; 1 hour of exposure, damage when TM > 5 A.U. and TI > 10%): no DNA damage
CCN(CC)C(=S)[S][Sn]([c]1ccccc1)([c]1ccccc1)[c]1ccccc1 [ODTC 5, triphenyltin (IV) diethyl dithiocarbamate] | 10.9% and 47.3% and 16.6% | 6.4% and 17.1% and 18.5% | 12.9% and 0.1% |  | 4.16 | 12.61 ± 1.56 | 11.59 ± 1.18 | 13.8528% and 11.0312% and 9.872% | 15.0222 A.U and 13.1179 A.U and 9.676 A.U | 0.79 ± 0.05 | 64.02% and 86.49% and 54.56% | 30.58% and 13.51% and 45.44% | 5.4% and 0% | 69.8% and 35.6% and 64.8% | 37.70% and 42.75% and 36.81% | 39.38% and 30.79% and 37.35% | 35.19% and 39.06% and 29.63% | 37.67% and 28.99% and 27.66% | 16.16% and 17.11% and 21.93% |  | population of cells undergoing necrosis (CCL-119 cells [2]; 24 hours, treated at IC50): 4.37%
